# Measurements: paper PMC8362065, “Easily Available, Amphiphilic Diiron Cyclopentadienyl Complexes Exhibit in Vitro Anticancer Activity in 2D and 3D Human Cancer Cells through Redox Modulation Triggered by CO Release” (Chemistry (Weinheim an Der Bergstrasse, Germany), 2021)
# What was measured:
# [1] = Octanol/water partition coefficient, shake-flask method and UV/Vis
# Description: Octanol/water partition coefficients (log Pow ). Partition coefficients (P ow; IUPAC: K D partition constant[53]), defined as P ow=corg/caq, where corg and caq are molar concentrations of the selected compound in the organic and aqueous phase, respectively, were determined by the shake‐flask method and UV/Vis measurements.[[16a], [54]] Deionized water and octan‐1‐ol were vigorously stirred for 24 h, to enable saturation of both phases, then separated by centrifugation. A stock solution of the selected Fe compound (ca. 2 mg) was prepared by first adding acetone (50 μL, to help solubilization), followed by water‐saturated octanol (2.5 mL). The solution was diluted with water‐saturated octanol (ca. 1 : 3 v/v ratio, cFe2 ≈10^−4 M, so that 1.5≤A≤2.0 at λ max) and its UV/Vis spectrum was recorded ( A0/org ). An aliquot of the solution (V org=1.2 mL) was transferred into a test tube and octanol‐saturated water (V org=V aq=1.2 mL) was added. The mixture was vigorously stirred for 30 min at 21 °C then centrifuged (RCF 805, 5 min; Hettich EBA 8G). The UV/Vis spectrum of the organic phase was recorded ( Af/org ) and the partition coefficient was calculated as P ow= Af/org /( A0/org g− Af/org ) where A0/org and Af/org are the absorbance in the organic phase before and after partition with the aqueous phase, respectively.[53] For [2B]BF4, [2C]Cl and [3F]CF3SO3 an inverse procedure was followed, starting from a solution of the compound in octanol‐saturated water. The partition coefficient was calculated as P ow=( A0/aq − Af/aq )/ Af/aq where A0/aq and Af/aq are the absorbance in the aqueous phase before and after partition with the organic phase, respectively.
# [2] = test system: 3D cell spheroids of human pancreatic (PSN‐1) cancer cells; assay: Acid phosphatase (APH) assay, 3D spheroid culture; format: cell-based; details: PSN‐1 spheroids, 72 h, APH test
# Text: (§1) The remarkable cell‐killing effect observed in 2D cultured cells prompted us to evaluate the in vitro antitumor activity of the complexes on 3D cell cultures. Differently from 2D monolayer culture, 3D spheroid cell culture systems comprise cancer cells in various cell growth stages. Consequently, the multicellular cancer spheroid model is recognized to better reflect the tumour mass in vivo regarding drug permeation, cell interactions, gene expression, hypoxia and nutrient gradients with respect to monolayer cell cultures, making 3D models more predictive than conventional 2D monolayer cultures in screening antitumor drugs.[38] Table 6 summarizes the IC50 values obtained after treatment of 3D cell spheroids of human ovarian (2008) and pancreatic (PSN‐1) cancer cells with the diiron complexes and cisplatin.
# (§2) Spheroid cultures. Spheroid cultures were obtained by seeding 2.5×10^3 cells/well in round bottom non‐tissue culture treated 96 well‐plate (Greiner Bio‐one, Kremsmünster, Austria) in phenol red free RPMI‐1640 medium (Sigma Chemical Co.), containing 10 % FCS and supplemented with 20 % methyl cellulose stock solution.
# (§3) Acid phosphatase (APH) assay. An APH modified assay was used for determining cell viability in 3D spheroids, as previously described.[58] IC50 values were calculated with a four‐parameter logistic (4‐PL) model. All the values are the means ± SD of not less than four independent experiments.
# [3] = test system: 3D cell spheroids of human ovarian (2008) cancer cells; assay: Acid phosphatase (APH) assay, 3D spheroid culture; format: cell-based; details: 2008 spheroids, 72 h, APH test
# Text: as §1, §2, §3
# [4] = test system: Human breast (MCF‐7) carcinoma cell line; assay: MTT assay, 2D cell culture; format: cell-based; details: 72 h
# Description: (§4) Compounds [2B]BF4, [2C]CF3SO3, [2D]CF3SO3 and [3F]CF3SO3 were dissolved in water while the other compounds were dissolved in the minimum DMSO amount prior to cell culture testing. A calculated amount of the stock drug DMSO solution was added to the cell culture media to reach a final maximum DMSO concentration of 0.5 %, which had no effects on cell viability.
# (§5) Cell cultures. Human colon (HCT‐15), pancreatic (PSN‐1) and breast (MCF‐7) carcinoma cell lines along with human melanoma cells (A375) were obtained from American Type Culture Collection (ATCC, Rockville, MD). Embryonic kidney HEK293 cells were obtained from the European Collection of Cell Cultures (ECACC, Salisbury, UK). Human ovarian 2008 cancer cells were kindly provided by Prof. G. Marverti (Dept. of Biomedical Science of Modena University, Italy). MCF‐7 ADR cells were kindly provided by Prof. N. Colabufo (Dept. Pharmacy, University of Bari, Italy). Cell lines were maintained in the logarithmic phase at 37 °C in a 5 % CO2 atmosphere using the following culture media containing 10 % fetal calf serum (Euroclone, Milan, Italy), antibiotics (50 units/mL penicillin and 50 μg/mL streptomycin) and 2 mM L‐glutamine: i) RPMI‐1640 medium (Euroclone, Milan, Italy) for PSN‐1, 2008, HCT‐15, MCF‐7 and MCF‐7 ADR cells; ii) DMEM for A375 and HEK293 cells.
# (§6) MTT assay. The growth inhibitory effect towards tumour cells was evaluated by means of MTT assay as previously described.[57] Briefly, 3–8×10^3 cells/well, dependent upon the growth characteristics of the cell line, were seeded in 96‐well microplates in growth medium (100 μL). After 24 h, the medium was removed and replaced with a fresh one containing the compound to be studied at the appropriate concentration. Triplicate cultures were established for each treatment. After 24 or 72 h, each well was treated with 10 μL of a 5 mg/mL MTT saline solution, and following 5 h of incubation, 100 μL of a sodium dodecyl sulfate (SDS) solution in HCl 0.01 M were added. After an overnight incubation, cell growth inhibition was detected by measuring the absorbance of each well at 570 nm using a Bio‐Rad 680 microplate reader. Mean absorbance for each drug dose was expressed as a percentage of the control untreated well absorbance and plotted against drug concentration. IC50 values, the drug concentrations that reduce the mean absorbance at 570 nm to 50 % of those in the untreated control wells, were calculated by the four‐parameter logistic (4‐PL) model. Evaluation was based on means from at least four independent experiments.
# [5] = test system: Human pancreatic (PSN‐1) carcinoma cell line; assay: MTT assay, 2D cell culture; format: cell-based; details: PSN‐1 cells, 72 h, read-out: IC50 (μM)±SD
# Description: as §4, §5, §6
# [6] = test system: human melanoma cells (A375); assay: MTT assay, 2D cell culture; format: cell-based; details: 72 h
# Description: as §4, §5, §6
# [7] = test system: Human ovarian 2008 cancer cells; assay: MTT assay, 2D cell culture; format: cell-based; details: 2008 cells, 72 h
# Description: as §4, §5, §6
# [8] = test system: Human colon (HCT‐15) carcinoma cell line; assay: MTT assay, 2D cell culture; format: cell-based; details: HCT‐15 cells, 72 h
# Description: as §4, §5, §6
# [9] = test system: Embryonic kidney HEK293 cells; assay: MTT assay, noncancerous cell line; format: cell-based, human; details: 72 h
# Description: As one of the main drawbacks of chemotherapeutics is the toxic effect toward noncancerous cells, we measured the cytotoxicity of tested complexes against a noncancerous cell line (HEK293) and calculated the selectivity index (SI, defined as the ratio between the IC50 value in noncancerous cells and the corresponding average IC50 value related to cancer cells; Table 5).
# as §4, §5, §6
# [10] = test system: 3D cell spheroids of human ovarian (2008) cancer cells; assay: Acid phosphatase (APH) assay, 3D spheroid culture; format: cell-based; details: 2008 cell line
# MCF‐7 ADR cells = assay: MTT assay, multidrug-resistant cancer cell model overexpressing P-gp; format: cell-based, human
# Description: The antiproliferative activity was also investigated in a multidrug‐resistant cancer cell model overexpressing P‐gp (MCF‐7 ADR cells).
# as §4, §5, §6
# [11] = Solubility pattern of the isolated compound (qualitative); format: physicochemical; details: isolated solid
# [12] = Stability in cell culture medium (DMEM) at 37 °C by 1H NMR; format: physicochemical; details: DMEM-d (6.6 % CD3OD)
# Description: Next, the stability of the diiron compounds in a cell culture medium (DMEM) solution at 37 °C, over a shorter time range (24 h), was assessed by ^1H NMR.
# (§7) Stability in water (D2O) and cell culture medium. The procedures are described in the Supporting Information, and data are collected in Table S3.
# (§8) Table S3. Stability of diiron complexes in D2O, D2O/CD3OD, DMSO-d6/D2O and cell culture medium (DMEM-
# (§9) d/CD3OD) solution at 37 °C calculated by 1H NMR (Me2SO2 internal standard).
# (§10) % starting material (72 h) % starting material
# (§11) Compound D O D O/CD OD DMSO-d /D O DMEM-d
# (§12) [a] X = I for the stability in D 2O, X = CF3SO3 for the stability in cell culture medium. [b] Stability in D 2O and […]
# [13] = Stability in D2O, D2O/CD3OD and DMSO-d6/D2O at 37 °C by 1H NMR; format: physicochemical; details: D2O
# Description: A detailed study on the behaviour of a selection of the diiron complexes in aqueous media was undertaken. Experimental procedures are provided in the Experimental Section and in the Supporting Information, with data collected in Tables 3, S3 and S4. […] The octanol/water partition coefficients (log P ow) were measured by a UV/Vis method and fall in between 0 and −1, reflecting an amphiphilic or slightly hydrophilic character. […] Conversely, those complexes with aromatic groups (i. e., 1H‐indol‐6‐yl, 2‐naphthyl and bis‐benzyl in [2A]^+, [3G]^+, [4G]^+ and [5H]^+) are less soluble in water and display increased affinity for n‐octanol (log P ow≈0). The diiron compounds are inert in aqueous solution at room temperature, and undergo a slow degradation at 37 °C. Under such conditions, a variable amount (50 to 86 %; Table S3) of the starting material was detected by ^1H NMR in D2O or D2O/CD3OD mixtures after 72 h.[33] During this time, the precipitation of a brown solid was observed, which in one case (from a [2C]CF3SO3 solution) was separated and identified as γ‐Fe2O3 by Raman analysis. In addition, headspace GC analyses performed on 5 % MeOH aqueous solutions of the compounds maintained at 37 °C allowed the identification and quantitation of the carbon monoxide released over a 48 h period (Table S4). These facts indicate that the thermal degradation process in aqueous solution leads to the progressive disassembly of the organometallic scaffold.[16] The presumed, controlled release of the iron centres (converted to iron oxide, see above) and carbon monoxide are two aspects that deserve attention with reference to the biological activity: note that the decay of ferrocene drug candidates into Fe^II ions was previously associated to their cytotoxicity,[34] while the activity of various iron carbonyl complexes was correlated to CO dissociation in the physiological media.[35]
# as §7, §8, §9, §10, §11, §12
compound,measurement,setting,value
"O=C1C=CC(=O)c2ccccc21 [Naphthoquinone, reference compound]",logP at 30 min,[1],1.8 ± 0.2
"N.N.[Cl][Pt][Cl] [cisplatin, reference compound]",IC50,[2],61.7 ± 12.1 µM
same,IC50,[3],57.6 ± 3.6 µM
same,IC50,[4]; MCF‐7 cells,8.8 ± 0.2 µM
same,IC50,[5],12.1 ± 2.9 µM
same,IC50,[6],2.1 ± 0.3 µM
same,IC50,[7],2.2 ± 1.4 µM
same,IC50,[8],16.5 ± 2.2 µM
same,IC50,"[9]; HEK293 noncancerous cells, MTT",18.1 ± 3.6 µM
same,SI (selectivity index),[9]; IC50 in noncancerous HEK293 cells / average IC50 in cancer cells,2.2
same,IC50 ratio related to 3D and 2D experiments,[10],26
"COc1cccc2c1C(=O)c1c(O)c3c(c(O)c1C2=O)C[C@@](O)(C(=O)CO)C[C@@H]3O[C@H]1C[C@H](N)[C@H](O)[C@H](C)O1 [doxorubicin, reference compound]",IC50,"MCF‐7 ADR cells; Homo sapiens, NCI/ADR-RES, MCF‐7 ADR cells, 72 h, MTT",7.8 ± 2.2 µM
same,RF=IC50 (resistant cells)/IC50 (wild‐type cells),"MCF‐7 ADR cells; MCF‐7 ADR vs MCF‐7, 72 h",39
same,IC50,"[4]; Homo sapiens, MCF7, MCF‐7 cells",0.2 ± 0.03 µM
[Fe2Cp2(CO)2(μ‐CO){μ‐CNMe(2‐naphthyl)}]I [[3G]I],Solubility in water (qualitative),[11],sparingly soluble
[Fe2Cp2(CO)2(μ‐CO){μ‐CNMe(C6H11)}]X [[2C]Cl],% starting material (24 h),[12],88%
same,% starting material (72 h),[13],79%
same,Log P ow,"[1]; octanol/water, 21 °C",−1.1±0.08
[Fe2Cp2(CO)2(μ‐CO){μ‐CNMe(CH2CHCH2)}]X [[3F]I],Solubility in water (qualitative),[11],poorly soluble
[Fe2Cp2(CO)2(μ‐CO){μ‐CNMe(CH2CHCH2)}]X [[3F]X],% starting material (24 h),[12],84%
same,% starting material (72 h),[13],60%
[Fe2Cp2(CO)2(μ‐CO){μ‐CNMe(CH2PO3Et2)}]X [[2B]CF3SO3],IC50±SD (μM),[2],ineffective
same,IC50±SD (μM),[3],ineffective
